From patent US20240189440A1, “TLR7 AND TLR8 AGONISTS FOR THE TREATMENT OF CANCER AND/OR INFECTIOUS DISEASES” (priority 2021, published 2024) come the findings set out here.

Where two headings read alike, the source gives them in different places.

For experiment [1], the system named is NFκB induction (SEAP) in Ramos-blue cells. Briefly: NFkB activation in Ramos-Blue cells for additional TLR7 agonists (Example 31). Format: cell-based. As to conditions: for EC (2-fold SEAP signal): lowest concentration that doubles the SEAP background (nontreated) signal, read-out: Lowest concentration to induce 2x SEAP; for Fold increase in SEAP signal at lowest active concentration: versus nontreated background. As to the method:
A 3× serial dilution was performed in 10% DMSO in PBS for each payload to have a final range of concentration from 1000 uM to 76 nM. Ramos-blue cells (InvivoGen, cat #rms-sp) were cultured using high glucose DMEM media supplied with 10% fetal bovine serum according to the manufacturer guidelines. The media was supplemented with 50 U/mL penicillin, 50 ug/mL streptomycin, and 100 ug/mL normocin to prevent bacterial contamination. The cell density and viability were calculated using a Countess Cell Counter and the proper volume of cells was removed in order to have a seeding density of 0.2×10^6 cells/mL per well. 135 uL of the cell suspension was added to each well in a 96-well plate along with 15 uL of the corresponding payload treatment. Each assay point was run in triplicate and the plate was incubated at 37° C. with 5% CO2 for 24 or 72 hours. In order to assess the NFκB induction, the QUANTI-Blue™ solution was prepared by adding 200 uL of QB reagent (InVivogen cat #rep-qbs) and 200 uL of QB buffer to 19.6 mL of water. The resulting solution was vortexed and incubated at room temperature for ten minutes. The 96-well plate was centrifuged at 1990 rpm for ten minutes and 40 uL of the cell supernatant was added to 160 uL of the prepared QUANTI-Blue™ solution. The QB reaction plate was incubated at 37° C. for 24 hours. The plate was read using the Molecular Devices i3x plate reader at a wavelength of 630 nm to determine the amount of SEAP production. The table below illustrates the lowest concentration of each compound that results in a doubling of the SEAP background (nontreated) signal. As illustrated, compounds of the invention ranged from low nM to low micromolar.

For experiment [2], the system named is NFκB pathway in Ramos-blue cells. Description: Ramos-Blue NFκB/SEAP reporter assay with cysteine-capped linker-payloads, 72 h (Example 15). The class given is cell-based. As to conditions: read-out: Relative Activation. The procedure: A 50 mM cysteine stock was prepared in 0.1 M PBS pH 7.4. 10 equivalents of 50 mM cysteine were added to 1 equivalent of linker-payload to create a 2.50 mM solution. The reaction was vortexed and sat at room temperature for an hour to allow for the Michael addition to occur. After an hour, an aliquot was taken and run via UPLC-MS to ensure for the complete Michael reaction. The reaction was diluted to 1 mM using 0.1M PBS pH 7.4. The 1 mM solution was diluted to 500 uM and 50 uM in a 96-well plate to afford a final concentration of 50 uM and 5 uM in the cell suspension. The cell density and viability were calculated using the Countess Cell Counter and the proper volume of cells was removed in order to have a seeding density of 0.2×10^6 cells/mL per well. 135 uL of cell suspension was added to each well in a 96-well plate along with 15 uL of the corresponding linker-payload treatment. Each concentration was run in triplicate and incubated at 37° C. with 5% CO2 for 72 hours.
Invivogen's QUANTI-Blue™ solution was prepared by adding 200 uL of QB reagent and 200 uL of QB buffer to 19.6 mL of water. The resulting solution was vortexed and incubated at room temperature for ten minutes. The 96-well plate was centrifuged at 1990 rpm for ten minutes. Then, 40 uL of cell supernatant was added to 160 uL of the prepared QUANTI-Blue™ solution and incubated at 37° C. for 24 hours. The plate was read using the Molecular Devices i3x plate reader at a wavelength of 630 nm to determine the amount of SEAP production.

[3] abbreviates: Linker-Payload Dose 5 uM, cysteine-capped, 72 hours, SEAP at 630 nm.
[4] abbreviates: Linker-Payload Dose 50 uM, cysteine-capped, 72 hours, SEAP at 630 nm.

As to `CCCCOC(=O)Cc1ccc(Cn2c(CCCC)nc3c(N)nc4ccccc4c32)cc1` [20o, Butyl 2-(4-((4-amino-2-butyl-1H-imidazo[4,5-c]quinolin-1-yl)methyl)phenyl)acetate], in experiment [1], the EC (2-fold SEAP signal) turned out to be 0.069 µM and the “Fold increase in SEAP signal at lowest active concentration” value (“Fold increase in SEAP signal” for short) was determined as 4.158.
On the same counts, the results for `CCCCc1nc2c(N)nc3ccccc3c2n1Cc1ccc(NC(=O)CCCCNC(=O)OC(C)(C)C)cc1` [20d, tert-butyl(5-((4-((4-amino-2-butyl-1H-imidazo[4,5-c]quinolin-1-yl)methyl)phenyl)amino)-5-oxopentyl)carbamate] are 0.0076 µM and 2.222.
On the same counts, the results for `CCCCc1nc2c(N)nc3ccccc3c2n1Cc1ccc(NC(=O)CCCNC(=O)OC(C)(C)C)cc1` [20c, tert-butyl(4-((4-((4-amino-2-butyl-1H-imidazo[4,5-c]quinolin-1-yl)methyl)phenyl)amino)-4-oxobutyl)carbamate] are 0.0076 µM and 2.352.
Regarding `CCCCc1nc2c(N)nc3ccccc3c2n1Cc1ccc(NC(=O)CN)cc1` [20f, 2-amino-N-(4-((4-amino-2-butyl-1H-imidazo[4,5-c]quinolin-1-yl)methyl)phenyl)acetamide], in experiment [1], the EC (2-fold SEAP signal) came to 0.069 µM and the “Fold increase in SEAP signal” value was found to be 2.225.
With “(3-((4-((4-amino-2-butyl-1H-imidazo[4,5-c]quinolin-1-yl)methyl)phenyl)amino)-3-oxopropyl)carbamate [20b]”, in experiment [1], the EC (2-fold SEAP signal) came out at 0.0076 µM and the “Fold increase in SEAP signal” value was found to be 4.416.
On the same counts, the results for `CCCCc1nc2c(N)nc3ccccc3c2n1Cc1ccc(NC(=O)CCN)cc1` [20g, 3-amino-N-(4-((4-amino-2-butyl-1H-imidazo[4,5-c]quinolin-1-yl)methyl)phenyl)propanamide] are 0.62 µM and 2.638.
Regarding `CCCCc1nc2c(N)nc3ccccc3c2n1Cc1cccc(N)c1` [23f, 1-(3-aminobenzyl)-2-butyl-1H-imidazo[4,5-c]quinoline-4-amine], in experiment [1], the EC (2-fold SEAP signal) came out at 0.023 µM and the “Fold increase in SEAP signal” value is given as 1.946.
For the compound `CCCCc1nc2c(N)nc3ccccc3c2n1Cc1cccc(O)c1` [21f, 3-((4-amino-2-butyl-1H-imidazo[4,5-c]quinolin-1-yl)methyl)phenol], in experiment [1], the EC (2-fold SEAP signal) stood at 0.21 µM and the “Fold increase in SEAP signal” value is 2.902.
Consider `CCCCC(=O)Nc1ccc(Cn2c(CCCC)nc3c(N)nc4ccccc4c32)cc1` [20k, N-(4-((4-amino-2-butyl-1H-imidazo[4,5-c]quinolin-1-yl)methyl)phenyl)pentanamide], for which, in experiment [1], the EC (2-fold SEAP signal) worked out at 0.0076 µM and the “Fold increase in SEAP signal” value is reported as 2.398.
For the compound `CCCCc1nc2c(N)nc3ccccc3c2n1Cc1ccc(NC(=O)C(CCCNC(N)=O)NC(=O)C(NC(=O)CCCCCN2C(=O)C=CC2=O)C(C)C)cc1` (centres unmarked) [Mc_ValCit_E104, N-(1-(1-(4-((4-amino-2-butyl-1H-imidazo[4,5-c]quinolin-1-yl)methyl)phenylamino)-1-oxo-5-ureidopentan-2-ylamino)-3-methyl-1-oxobutan-2-yl)-6-(2,5-dioxo-2,5-dihydro-1H-pyrrol-1-yl)hexanamide], the activation at 5 µM in experiment [2] (setting [3]) is 238%. The activation at 50 µM in experiment [2] (setting [4]) is -50.9%.
Consider `CCCCc1nc2c(N)nc3ccccc3c2n1Cc1ccc(CNC(=O)OCc2ccc(NC(=O)C(CCCNC(N)=O)NC(=O)C(NC(=O)CCCCCN3C(=O)C=CC3=O)C(C)C)cc2)cc1` (centres unmarked) [Mc_ValCitPABC_E66, 4-(2-(2-(6-(2,5-Dioxo-2,5-dihydro-1H-pyrrol-1-yl)hexanamido)-3-methylbutanamido)-5-ureidopentanamido)benzyl 4-((4-amino-2-butyl-1H-imidazo[4,5-c]quinolin-1-yl)methyl)benzylcarbamate], for which the activation at 5 µM in experiment [2] (setting [3]) was 7.15%. The activation at 50 µM in experiment [2] (setting [4]) was -19.7%.
In the case of `CCCCc1nc2c(N)nc3ccccc3c2n1Cc1ccc(NC(=O)CCCCCN)cc1` [20j, 6-amino-N-(4-((4-amino-2-butyl-1H-imidazo[4,5-c]quinolin-1-yl)methyl)phenyl)hexanamide], in experiment [1], the EC (2-fold SEAP signal) was found to be 0.21 µM and the “Fold increase in SEAP signal” value came to 2.802.
On to `CCOCc1nc2c(NC(=O)CCCCCN3C(=O)C=CC3=O)nc3ccccc3c2n1CC(C)(C)O` [Mc_Resiquimod, 6-(2,5-dioxo-2,5-dihydro-1H-pyrrol-1-yl)-N-(2-(ethoxymethyl)-1-(2-hydroxy-2-methylpropyl)-1H-imidazo[4,5-c]quinolin-4-yl)hexanamide], for which the activation at 5 µM in experiment [2] (setting [3]) was determined as 17.6%. For the same compound, the activation at 50 µM in experiment [2] (setting [4]) was -21%.
Take `CCCCc1nc2c(N)nc3ccccc3c2n1Cc1ccc(O)cc1` [22f, 4-((4-amino-2-butyl-1H-imidazo[4,5-c]quinolin-1-yl)methyl)phenol]: in experiment [1], the EC (2-fold SEAP signal) came out at 0.069 µM and the “Fold increase in SEAP signal” value is on record as 2.269.
Regarding `CCOCc1cc2c(NC(=O)C(CCCNC(N)=O)NC(=O)C(NC(=O)CCCCCN3C(=O)C=CC3=O)C(C)C)nc3ccccc3c2n1CC(C)(C)O` (centres unmarked) [Mc_ValCit_Resiquimod, 6-(2,5-Dioxo-2,5-dihydro-1H-pyrrol-1-yl)-N-(1-(1-(2-(ethoxymethyl)-1-(2-hydroxy-2-methylpropyl)-1H-pyrrolo[3,2-c]quinolin-4-ylamino)-1-oxo-5-ureidopentan-2-ylamino)-3-methyl-1-oxobutan-2-yl)hexanamide], in experiment [2] (72 h), the activation at 5 µM stood at 11.4% and the activation at 50 µM was -23.1%.
On to `CCCCc1nc2c(N)nc3ccccc3c2n1Cc1ccc(OC)cc1` [22e, 2-butyl-1-(4-methoxybenzyl)-1H-imidazo[4,5-c]quinolin-4-amine], for which, in experiment [1], the EC (2-fold SEAP signal) came out at 0.21 µM and the “Fold increase in SEAP signal” value is 2.537.
As for `CCCCc1nc2c(N)nc3ccccc3c2n1Cc1cccc(OC)c1` [21e, 2-butyl-1-(3-methoxybenzyl)-1H-imidazo[4,5-c]quinoline-4-amine], in experiment [1], the EC (2-fold SEAP signal) worked out at 0.62 µM and the “Fold increase in SEAP signal” value is recorded as 5.753.
Consider `CCCCc1nc2c(N)nc3ccccc3c2n1Cc1ccc(NC(C)=O)cc1` [20l, N-(4-((4-amino-2-butyl-1H-imidazo[4,5-c]quinolin-1-yl)methyl)phenyl)acetamide], for which, in experiment [1], the EC (2-fold SEAP signal) stood at 0.023 µM and the “Fold increase in SEAP signal” value turned out to be 2.11.
The corresponding values for `CCCCc1nc2c(N)nc3ccccc3c2n1Cc1ccc(NC(=O)CCCCCNC(=O)OC(C)(C)C)cc1` [20e, tert-butyl(6-((4-((4-amino-2-butyl-1H-imidazo[4,5-c]quinolin-1-yl)methyl)phenyl)amino)-6-oxohexyl)carbamate] are 0.069 µM and 2.983.
As for `CCCCc1nc2c(N)nc3ccccc3c2n1Cc1ccc(NC(=O)OC(C)C)cc1` [20n, Isopropyl (4-((4-amino-2-butyl-1H-imidazo[4,5-c]quinolin-1-yl)methyl)phenyl)carbamate], in experiment [1], the EC (2-fold SEAP signal) was 0.0076 µM and the “Fold increase in SEAP signal” value is recorded as 1.925.
As to `CCCCc1nc2c(N)nc3ccccc3c2n1Cc1cccc(NC(=O)OC(C)(C)C)c1` [23e, Tert-butyl (3-((4-amino-2-butyl-1H-imidazo[4,5-c]quinoline-1-yl)methyl)phenyl)carbamate], in experiment [1], the EC (2-fold SEAP signal) amounted to 1.87 µM and the “Fold increase in SEAP signal” value turned out to be 4.344.
As for `CCCCc1nc2c(N)nc3ccccc3c2n1Cc1ccc(NC(=O)OCC)cc1` [20m, ethyl (4-((4-amino-2-butyl-1H-imidazo[4,5-c]quinolin-1-yl)methyl)phenyl)carbamate], in experiment [1], the EC (2-fold SEAP signal) turned out to be 0.023 µM and the “Fold increase in SEAP signal” value is on record as 3.188.
